In patent US7405207B2, “Nebulizer formulations of dehydroepiandrosterone and methods of treating asthma or chronic obstructive pulmonary disease using compositions thereof” (Epigenesis Pharmaceuticals, Inc., priority 2002, dated 2008):
Where “and” joins values, the source holds several entries; their conditions need not be identical. Equal entries are not always repeated.

Experiments:
Format in all cases: physicochemical
[1] = Solubility of DHEA-S; settings: 20 mM Na+ (0.12% NaCl), Ksp of 1316 mM^2, 15° C.
Source text: Inhalation of pure water can produce a cough stimulus.

[2] = Short-term solution stability; settings: 7.5 mg/mL in 0.12% NaCl, room temperature
Procedure: Stability Studies. […] Aliquots of this solution are filled into clear glass vials and stored at room temperature (24-26° C.) and at 40° C. The samples are checked daily for DHEA-S content, DHEA content, and appearance. For each time point, duplicate samples are withdrawn and diluted from each vial.

[3] = Stability of anhydrous DHEA-S and DHEA-S dihydrate with and without lactose (HPLC, DHEA formed)
Source text: These conditions were used to stress the formulation in order to predict its long-term stability results.
The primary degradant is dehydroepiandrosterone or DHEA. […] The materials on accelerated storage become more cohesive with time as evidenced by clumping during sample weighing for chemical analysis. […] This is a considerable disadvantage since lactose is the most commonly used inhalation excipient for dry powder formulations. Continuing with the virtually anhydrous form would mean limiting formulations to neat powder or undertaking more comprehensive safety studies to use a novel excipient.

Row | SMILES | calculated DHEA-S concentration (solubility) [1] | solution stability [2] | water content ([3]; after accelerated storage, one week at 50° C.) [%] | water content ([3]; starting value) [%]
1 | C[C@]12CC[C@H](OS(=O)(=O)[O-])CC1=CC[C@@H]1[C@@H]2CC[C@]2(C)C(=O)CC[C@@H]12.[Na+] [DHEA-S, sodium dehydroepiandrostenone sulfate] | 27.5 mM and 10.7 mg/mL | stable for at least one day |  | 
2 | CC12CCC3C(CC=C4CC(OS(=O)(=O)[O-])CCC43C)C1CCC2=O.[Na+] (stereo not shown) [DHEA-S Dihydrate, dehydroepiandrosterone sodium sulfate dihydrate] |  |  | 8.66 | 8.8
